From US20090036455A1, “ARYLPIPERAZINE DERIVATIVE AND USE THEREOF AS 5-HT1A RECEPTOR LIGANDS” (CEPA SCHWARZ PHARMA, S.L., priority 2004, published 2009) come the findings set out here.

For orientation: melting point means the temperature of the solid-liquid transition. As usually defined, the Ki is a dissociation constant, usually derived from enzyme kinetics or from competition with a known ligand.

The structures appear in SMILES notation. Counter-ions that a name gives are not always drawn. Like-named read-outs stand apart in the source and are kept apart here. Some results are limits rather than exact numbers.

The target of one data set is T1, 5-HT1A receptor (Rattus norvegicus, UniProt P19327).
T1 construct: The cerebral cortex was homogenized in 10 volumes of ice-cold Tris buffer; from tissue; host or cells: rat cerebral cortex membranes
T1 sequence (P19327 1-422): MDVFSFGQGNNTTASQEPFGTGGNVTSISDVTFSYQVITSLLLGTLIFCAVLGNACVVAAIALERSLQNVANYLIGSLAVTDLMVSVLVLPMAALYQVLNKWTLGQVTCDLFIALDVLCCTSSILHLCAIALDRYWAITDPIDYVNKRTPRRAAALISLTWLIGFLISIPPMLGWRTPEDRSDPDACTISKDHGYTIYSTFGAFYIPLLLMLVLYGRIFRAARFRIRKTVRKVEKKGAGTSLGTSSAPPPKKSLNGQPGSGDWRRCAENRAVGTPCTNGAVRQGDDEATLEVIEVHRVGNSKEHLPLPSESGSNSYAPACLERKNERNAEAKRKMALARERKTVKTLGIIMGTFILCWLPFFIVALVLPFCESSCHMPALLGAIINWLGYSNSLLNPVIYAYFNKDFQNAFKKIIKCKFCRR
Put plainly: Radioligand binding assay, 5-HT1A receptor ([3H]-8-OH-DPAT, rat cerebral cortex membranes). Here is the method:
(§1) For all receptor binding assays, male Sprague-Dawley rats (Rattus norvegicus albinus), weighing 180-200 g, were killed by decapitation and the brains rapidly removed and dissected. Tissues were stored at −80° C. for subsequent use and homogenized on a Polytron PT-10 homogenizer. Membrane suspensions were centrifuged on a Beckman J2-HS instrument.
The cerebral cortex was homogenized in 10 volumes of ice-cold Tris buffer (50 mM Tris-HCl, pH 7.7 at 25° C.) and centrifuged at 28000 g for 15 min. The membrane pellet was washed twice by resuspension and centrifugation. After the second wash the resuspended pellet was incubated at 37° C. for 10 min. Membranes were then collected by centrifugation and the final pellet was resuspended in 50 mM Tris-HCl, 5 mM MgSO4, and 0.5 mM EDTA buffer (pH 7.4 at 37° C.). Fractions of 100 μL of the final membrane suspension (about 1 mg of protein) were incubated at 37° C. for 15 min with 0.6 nM [^3]-8-OH-DPAT (133 Ci/mmol), in the presence or absence of the competing drug, in a final volume of 1.1 mL of assay buffer (50 mM Tris-HCl, 10 nM clonidine, 30 nM prazosin, pH 7.4 at 37° C.). Nonspecific binding was determined with 10 μM 5-HT.
(§2) For all binding assays, competing drug, nonspecific, total and radioligand bindings were defined in triplicate. Incubation was terminated by rapid vacuum filtration through Whatman GF/B filters, presoaked in 0.05% poly(ethylenimine), using a Brandel cell harvester. The filters were then washed with the assay buffer, dried and placed in poly(ethylene) vials to which were added 4 mL of a scintillation cocktail (Aquasol). The radioactivity bound to the filters was measured by liquid scintillation spectrometry. The data were analyzed by an iterative curve-fitting procedure (program Prism, Graph Pad), which provided IC50, Ki, and r^2 values for test compounds, Ki values being calculated from the Cheng and Prusoff equation. The protein concentrations of the rat cerebral cortex and the rat striatum were determined by the method of Lowry, using bovine serum albumin as the standard.

The subject of another data set is α1 adrenoceptor. Kind of data set: Radioligand binding assay, α1 adrenoceptor ([3H]prazosin, rat cerebral cortex membranes). To be noted: for percent value (α1) / Ki: rat cerebral cortex membranes; for percent value (α1): [3H]prazosin, footnote to * not given; for Ki: 0.2 nM [3H]prazosin, hydrochloride salts, read-out: Ki ± SEM (α1). Here is the method:
as §1
The cerebral cortex was homogenized in 20 volumes of ice-cold buffer (50 mM Tris-HCl, 10 mM MgCl2, pH 7.4 at 25° C.) and centrifuged at 30000 g for 15 min. Pellets were washed twice by resuspension and centrifugation. Final pellets were resuspended in the same buffer. Fractions of the final membrane suspension (about 250 μg of protein) were incubated at 25° C. for 30 min with 0.2 nM [^3H]prazosin (23 Ci/mmol), in the presence or absence of six concentrations of the competing drug, in a final volume of 2 mL of buffer. Nonspecific binding was determined with 10 μM phentolamine.
as §2

Setting [1] is: rat cerebral cortex membranes, 0.6 nM [3H]-8-OH-DPAT, hydrochloride salts, read-out: Ki ± SEM (5-HT1A).

On to `O=C1C2CCCN2C(=O)CN1CCCCN1CCN(c2cccc3c2OCCCO3)CC1` (centres unmarked) (as salt: hydrochloride) [Compound (h), 2-[4-[4-(3,4-Dihydro-2H-1,5-benzodioxepin-6-yl)piperazin-1-yl]butyl]-1,4-dioxoperhydropyrrolo[1,2-a]pyrazine], for which the melting point was 212 to 213 °C (dec.).

For the molecule `O=C1C2CCCN2C(=O)CN1CCCCN1CCN(c2cccc3ccccc23)CC1` (centres unmarked) (as salt: hydrochloride) [Compound (g), 2-[4-[4-(Naphth-1-yl)piperazin-1-yl]butyl]-1,4-dioxoperhydropyrrolo[1,2-a]pyrazine], the melting point was 277 to 280 °C (dec.).

In the case of `C[C@H]1CN(c2cccc3ccoc23)CCN1CCCCN1C(=O)[C@@H]2CCCN2C1=O` [(n), (2S,7aS)-(+)-2-[4-[4-(1-Benzofuran-7-yl)-2-methylpiperazin-1-yl]butyl]-1,3-dioxoperhydropyrrolo[1,2-c]imidazole], the Ki on 5-HT1A receptor (setting [1]) turned out to be 1.6 ± 0.4 nM. For the same molecule, in the data set on α1 adrenoceptor, the “percent value (α1)” value amounted to 75%*.

Regarding `C[C@H]1CN(c2cccc3nc[nH]c23)CCN1CCCCN1C(=O)C2CCCN2C1=O` (mixture of isomers) [(r), (2S,7aRS)-(+)-2-[4-[4-(Benzimidazol-4-yl)-2-methylpiperazin-1-yl]butyl]-1,3-dioxoperhydropyrrolo[1,2-c]imidazole], the Ki on 5-HT1A receptor (setting [1]) was 4.1 ± 0.3 nM; at α1 adrenoceptor, > 1000 nM.

Turning to `C[C@H]1CN(c2ccccc2)CCN1CCCCN1C(=O)C2CCCN2C1=O` (mixture of isomers) [(q), (2S,7aRS)-(+)-2-[4-[2-Methyl-4-phenylpiperazin-1-yl]butyl]-1,3-dioxoperhydropyrrolo[1,2-c]imidazole], the Ki at 5-HT1A receptor (setting [1]) amounted to 22.1 ± 0.1 nM. Besides, the “percent value (α1)” value in the data set with α1 adrenoceptor worked out at 62%*.

Regarding `C[C@@H]1CN(c2cccc3ccccc23)CCN1CN1CC(=O)N2CCC[C@@H]2C1=O` [(c), (2R,8aR)-2-[[4-(Naphth-1-yl)-2-methylpiperazin-1-yl]methyl]-1,4-dioxoperhydropyrrolo[1,2-a]pyrazine], the Ki is 9.5 ± 2.2 nM on 5-HT1A receptor (setting [1]) and > 1000 nM at α1 adrenoceptor.

With `C[C@H]1CN(c2ccc([N+](=O)[O-])c3ccccc23)CCN1CCCCN1C(=O)C2CCCN2C1=O` (mixture of isomers) [(s), (2S,7aRS)-(+)-2-[4-[2-Methyl-4-(4-nitronaphth-1-yl)piperazin-1-yl]butyl]-1,3-dioxoperhydropyrrolo[1,2-c]imidazole], on 5-HT1A receptor (rat cerebral cortex membranes, [3H]-8-OH-DPAT, footnote to * not given), the “percent value marked * in column Ki ± SEM (5-HT1A)” value was 87%*. Besides, the “percent value (α1)” value in the data set with α1 adrenoceptor turned out to be 66%*.

`C[C@@H]1CN(c2cccc3ccccc23)CCN1CN1CC(=O)N2CCC[C@H]2C1=O` [(e), (2R,8aS)-2-[[4-(Naphth-1-yl)-2-methylpiperazin-1-yl]methyl]-1,4-dioxoperhydropyrrolo[1,2-a]pyrazine]: the Ki is 6.3 ± 0.2 nM on 5-HT1A receptor (setting [1]) and > 1000 nM at α1 adrenoceptor.

At 5-HT1A receptor, `Cc1ccc(N2CCN(CCCCN3C(=O)C4CCCN4C3=O)[C@@H](C)C2)c2ccccc12` (mixture of isomers) [(p), (2S,7aRS)-(+)-2-[4-[2-Methyl-4-(4-methylnaphth-1-yl)piperazin-1-yl]butyl]-1,3-dioxoperhydropyrrolo[1,2-c]imidazole] came in with a Ki of 15.3 ± 0.8 nM. The “percent value (α1)” value in the data set on α1 adrenoceptor came to 75%*.

As for `O=C1C2CCCN2C(=O)CN1CCCCN1CCN(c2cccc3ccccc23)CC1` (centres unmarked) [Compound (g), 2-[4-[4-(Naphth-1-yl)piperazin-1-yl]butyl]-1,4-dioxoperhydropyrrolo[1,2-a]pyrazine], the Ki at 5-HT1A receptor (setting [1]) is 0.5 ± 0.2 nM; on α1 adrenoceptor it was 8 ± 1.7 nM. For the same molecule, the “binding to the 5-HT1A receptor (in words)” value at 5-HT1A receptor (see table 1) is given as “picomolar range”. Also, in the data set on α1 adrenoceptor (see table 1), the “binding to the α1 adrenoceptor (in words)” value is listed as “low nanomolar range”.
